The values that follow are results of earlier work, collected in Sander's compilation of Henry's law constants (doi:10.1039/f19888401985).

The data set in a line: Henry solubility constant Hcp at 298.15 K (mol/(m3 Pa)). As to conditions: reference: Abraham and Matteoli (1988); cited value.
For `[Ar]` [argon], the “Henry solubility constant Hcp” value was 1.4e-05. In the case of `CCCC` [butane], the “Henry solubility constant Hcp” value was 1.3e-05. As to `[He]` [helium], the “Henry solubility constant Hcp” value was 3.8e-06. `CCCCCCC` [heptane]: the “Henry solubility constant Hcp” value is 4.4e-06. For the molecule `CCCCCC` [hexane], the “Henry solubility constant Hcp” value was 6.1e-06.

Turning to `[Kr]` [krypton], the “Henry solubility constant Hcp” value was 2.5e-05. As to `[Ne]` [neon], the “Henry solubility constant Hcp” value is 4.4e-06. On to `CCCCCCCC` [octane], for which the “Henry solubility constant Hcp” value was 3.1e-06. For `CCCCC` [pentane], the “Henry solubility constant Hcp” value was 8e-06. Take `[Rn]` [radon]: the “Henry solubility constant Hcp” value was 9.1e-05. Consider `[Xe]` [xenon], for which the “Henry solubility constant Hcp” value was 4.3e-05.
